From patent US7732401B2, “Inhibitor of TGF-β activation reaction” (Riken, priority 2007, dated 2010)
Where no end group is shown, it is not given here.

What was measured:
[1] = system: TGF-β1; assay: Amount of TGF-β1 in hepatic tissues of LPS-preadministered partially-hepatectomized mice (ELISA); assay type: in vivo, mouse; details: 200 μg/head i.v.; for Hepatic TGF-β1 Contents: Table 3
Procedure: A liver extract was prepared from approximately 100 mg of the hepatic tissues prepared for the use in protein quantitation in 11.2 above, according to the method of Okuno M. et al. (Okuno M. et al., Gastroenterology 2001; 120: 1784-1800). The amount of TGF-β1 in the extract was quantitated using an ELISA kit manufactured by PROMEGA. The quantitated TGF-β1 amount was presented as a pg/mg of protein.
A liver extract was prepared from approximately 30 mg of the hepatic tissues prepared for the use in protein quantitation in 11.2 above, according to the method of Okuno M. et al. (Okuno M. et al., Gastroenterology 2001; 120: 1784-1800). The amount of TGF-β1 in the extract was determined using an ELISA kit manufactured by PROMEGA. The amount of TGF-β1 was presented as a pg/mg protein of the sample. Other conditions were the same as those described in Example 2.

[2] = system: endotoxin (LPS)-preadministered partially-hepatectomized mice; assay: LPS-preadministered partially-hepatectomized mice model for impaired liver regeneration, PCNA staining; assay type: in vivo, mouse; details: Example 5, 200 μg/head i.v., 8 times; for percentage of PCNA positive cells: 48 hours after PH, FIG. 10; for improvement of impaired liver regeneration caused by preadministration of LPS: PCNA staining, FIG. 9
Procedure: For the experiment, 26 five-week-old male C3H/HeN mice were used. After completion of quarantine and environmental acclimatization, the mice were divided into the following 5 groups according to the body weight of each mouse on the day of grouping. These include, a group to which saline was preadministered and saline was then administered (G1: n=6); a group to which LPS was preadministered and saline was then administered (G2: n=6); a group to which LPS was preadministered and QP peptide was then administered (G3: n=4); a group to which LPS was preadministered and QPA peptide was then administered (G4: n=4); and a group to which LPS was preadministered and T200 peptide was then administered (G5: n=6) (Table 2).
After starting the test, 7 μg of LPS (saline in the case of G1) was intraperitoneally administered. Forty-eight hours later, partial hepatectomy was carried out on all the mice. Another forty-eight hours later, all the surviving mice were subjected to an autopsy. In the autopsy, blood was collected. Thereafter, 1 to 3 mice from each group were subjected to systemic perfusion with 4% paraformaldehyde (PFA), and the liver was then excised. All the excised lobes were embedded in an embedding agent “Tissue Mount” in a frozen state. On the other hand, the remaining 1 to 3 mice from each group were not subjected to systemic perfusion, and a portion of the liver was fixed with formalin, and the remaining portion was collected to be used as a frozen sample (used for mRNA and for protein quantitation). The organ that had been fixed with formalin was processed into a block, and it was then preserved together with the frozen sample in a deep freezer at −80° C.
Preparation method: A small amount of saline was added to one vial container that contained 5 mg of LPS, and it was then dissolved therein. Subsequently, the resultant solution was transferred into another container, and saline was then gradually added thereto to a total amount of 5 mL. The thus obtained solution was defined as a 1 μg/μL solution. 350 μL was collected from the obtained solution by precise weighing, and it was then added to a container that contained 4.65 mL of a sterilized normal saline solution (solvent). Thereafter, the mixed solution was filtrated and sterilized using a 0.22-μm filter, and the resultant was used as a sample to be administered. 7.2 LPS Administration Method Dose: 7 μg/head Administration route: intraperitoneal administration Administration volume: 0.1 mL/head Administration number: once (single administration) Administration timing: 48 hours before partial hepatectomy Target animal: G2 to G5 (To G1, saline was administered.) 8. Administration of Test Substance 8.1 Preparation of Peptide-Administering Sample Preparation frequency: once Preparation method: A peptide was dissolved in saline to a concentration of 2 mg/ml, and the resultant was used as a sample to be administered. Preservation method: The sample was preserved in a refrigerator before use. (The temperature was set at 4° C.) 8.2 Peptide Administration Method Dose: 200 μg/head Administration route: intravenous administration Administration volume: 0.11 mL/head Administration timing: 50, 38, 24, 14 and 2 hours before, and 10, 24 and 34 after partial hepatectomy Number of administration: twice/day, for 4 days (in principle, at 9:00 and at 19:00), 8 times in total Target animal: […] (To G1 and G2, saline was administered.) 9. Partial Hepatectomy (⅔ Partial Hepatectomy; PH) 9.1 Treating Method
Using a rotary microtome (Leica), a hepatic tissue section with a thickness of 5 μm was prepared from the embedded hepatic tissues. A proliferating cell nuclear antigen (PCNA; a proliferating cell marker) was stained according to the previously reported method (Greenwell A. et al., Cancer Lett 1991; 59: 251-256) using a Histofine kit (Nichirei Corporation). […]

Substance	hepatic contents of TGF-β1, times higher than the value of the control group ([1]; Example 2, LPS + PH)	Hepatic TGF-β1 Contents ([1]; Example 2, LPS + PH)	hepatic contents of TGF-β1, times higher than the value of the control group ([1]; Example 5, LPS + PH, FIG. 11)	percentage of PCNA positive cells [2]	improvement of impaired liver regeneration caused by preadministration of LPS [2]
N-52QILSAAAAASP62-C (QILSAAALASP) [QPA peptide, mutant of QP peptide with Lys56, Leu57, Arg58 and Leu59 substituted with Ala]	approximately 1.4 times	10 ± 11 pg/mg protein	~0.7 times	70%	significantly improved
N-52QILSQQQQASP62-C [QPQ peptide, mutant of QP peptide with Lys56, Leu57, Arg58 and Leu59 substituted with Gln]	–	–	approximately 1.6 times	64%	significantly improved
QILSKLRLASP [QP peptide]	–	–	approximately 1.6 times	66%	significantly improved
TGVVRQWLSRG [T200 peptide, reference compound]	approximately 3 times	20 ± 26 pg/mg protein	3.1 times	45%	did not exhibit such an improving effect
